The values that follow come from ChEMBL document CHEMBL6127081, “Peptide inhibitors targeting Ras and Ras-associated protein-protein interactions” (Eur J Med Chem, 2024).

In assay [1] the target is T1, GTPase KRas (Homo sapiens, UniProt P01116). In words: Binding affinity to KRas (unknown origin) assessed as dissociation constant.
The target in assay [2] is T2, GTPase HRas (Homo sapiens, UniProt P01112). In words: Binding affinity to HRas (unknown origin) assessed as dissociation constant.
The target of assay [3] is SOS1-KRAS (Homo sapiens, UniProt P01116, G12D). As to the kind of experiment: Inhibition of KRAS G12D mutant/SOS1 (unknown origin) interaction by TR-FRET assay. It counts as protein-complex assay.
Assay [4] in a line: Binding affinity to GDP bound RAF (unknown origin) assessed as dissociation constant. Further details: species or system Homo sapiens.
Assay [5] deals with Epidermal growth factor receptor (Homo sapiens) (UniProt P00533). In words: Inhibition of EGFR in human NCI-H1299 cells assessed as inhibition in MEK phosphorylation relative to control. In kind it is cell-based. The following applies: concentration not given here.
The next assay concerns the target GTPase KRas/RAF1 (Homo sapiens, UniProt P01116). As to the kind of experiment: Inhibition of KRAS/RAF interaction (unknown origin). In kind it is protein assay.
The target in assay [6] is T3, GTPase KRas (Homo sapiens, UniProt P01116, G12V). In words: Binding affinity to KRas G12V mutant (unknown origin) assessed as apparent dissociation constant by fluorescence anisotropy analysis. The following applies: read-out: Kd(app).
Assay [7] deals with T1, GTPase KRas. In words: Binding affinity to KRas (unknown origin) assessed as apparent dissociation constant by fluorescence anisotropy analysis. The following applies: read-out: Kd(app).
Assay [8] addresses Epidermal growth factor receptor (Homo sapiens) (UniProt P00533). As to the kind of experiment: Inhibition of EGFR in human NCI-H1299 cells assessed as inhibition in Akt phosphorylation relative to control. It counts as cell-based. The settings on record: concentration not given here.
Assay [9] has as its target T4, SOS1-KRAS (Homo sapiens, UniProt P01116). As to the kind of experiment: Inhibition of his-tagged N-terminal GDP-bound KRas (1 to 166 residues)/his-tagged catalytic domain SOS (564 to 1049 residues) (unknown origin) interaction extracted from Escherichia coli (BL21) by fluorescence based spectroflurometric analysis. In kind it is protein-complex assay.
The target in assay [10] is T4, SOS1-KRAS. In words: Binding affinity to his-tagged N-terminal GDP-bound KRas (1 to 166 residues)/his-tagged catalytic domain SOS (564 to 1049 residues) (unknown origin) interaction extracted from Escherichia coli (BL21) assessed as dissociation constant by fluorescence polarization assay. In kind it is protein-complex assay. In general terms: Fluorescence polarisation rises when a labelled molecule tumbles more slowly, as on binding a larger partner.

In assay [11] the target is T4, SOS1-KRAS. As to the kind of experiment: Binding affinity to his-tagged N-terminal KRas (1 to 166 residues)/his-tagged catalytic domain SOS (564 to 1049 residues) (unknown origin) interaction extracted from Escherichia coli (BL21) assessed as dissociation constant by fluorescence polarization assay. In kind it is protein-complex assay.
Assay [12] relates to NCI-H358. In words: Cytotoxicity against human NCI-H358 cells measured after 36 hrs by CCK-8 method. It counts as functional, cell-based. The settings on record: NCI-H358, 36 h. A general note: Tetrazolium dyes change colour on reduction, which living cells bring about.
Assay [13] addresses T5, GTPase KRas (Homo sapiens, UniProt P01116, G12C). In words: Binding affinity to KRas G12C mutant (unknown origin) assessed as dissociation constant by biolayer interferometry assay. A general note: BLI is a label-free optical method that tracks binding on a fibre tip over time.
Assay [14] has as its system NCI-H358. In words: Cytotoxicity against human NCI-H358 cells measured after 24 hrs by CCK-8 method. The following applies: NCI-H358, 24 h. In kind it is functional, cell-based.
Assay [15] concerns NCI-H358. In words: Cytotoxicity against human NCI-H358 cells measured after 48 hrs by CCK-8 method. It counts as functional, cell-based. The following applies: NCI-H358, 48 h.
For assay [16], the system named is NCI-H358. As to the kind of experiment: Cytotoxicity against human NCI-H358 cells measured after 72 hrs by CCK-8 method. It counts as functional, cell-based. The settings on record: NCI-H358, 72 h.
Assay [17] concerns the target T2, GTPase HRas. In words: Binding affinity to wild-type H-Ras (unknown origin) assessed as dissociation constant by fluorescence polarization assay.
Assay [18] concerns the target T3, GTPase KRas. In words: Inhibition of KRas G12V mutant (unknown origin) by fluorescence polarization assay.
In assay [19] the target is T5, GTPase KRas. As to the kind of experiment: Inhibition of KRas G12C mutant (unknown origin) by fluorescence polarization assay.
In assay [20] the target is GTPase KRas (Homo sapiens, UniProt P01116, G12S). As to the kind of experiment: Inhibition of KRas G12S mutant (unknown origin) by fluorescence polarization assay.
A short description of assay [21]: Inhibition of KRas Q61H mutant (unknown origin) by fluorescence polarization assay. Further details: species or system Homo sapiens.
Assay [22] deals with T1, GTPase KRas. As to the kind of experiment: Inhibition of recombinant wild-type KRas (unknown origin) by fluorescence polarization assay.
Assay [23] deals with GTPase KRas (Homo sapiens, UniProt P01116, G12D). As to the kind of experiment: Inhibition of KRas G12D mutant (unknown origin) by fluorescence polarization assay.

As a reminder, the IC50 is the concentration at which inhibition is half-maximal. Usually inhibition stands for the change of the read-out against control, counted positive when it falls.

Where a SMILES comes first, the peptide text is derived from it. Bridges are numbered along the chain shown (N, C = ends). [ ]: non-standard residue; d: D form. hArg = N=C(N)NCCCC[C@H](N)C(=O)O; S5 = C=CCCC[C@](C)(N)C(=O)O

For the molecule `CC[C@H](C)[C@H](NC(=O)[C@H](Cc1c[nH]c2ccccc12)NC(C)=O)C(=O)NCC(=O)N[C@@H](CCCNC(=N)N)C(=O)N[C@@H](CC(C)C)C(=O)N[C@@H](CC(C)C)C(=O)N[C@H](C(=O)N[C@@]1(C)CCC/C=C\CCC[C@@](C)(C(=O)N[C@@H](CCCNC(=N)N)C(=O)N[C@@H](CC(N)=O)C(=O)NCC(=O)N[C@@H](CC(N)=O)C(N)=O)NC(=O)[C@H](CC(C)C)NC(=O)[C@H](CCCCNC(=N)N)NC(=O)[C@H](CCCNC(=N)N)NC1=O)[C@@H](C)O` (Ac-WIGRLLT[S5]R[hArg]L[S5]RNGN-NH2; staple (Z) 8-12), the Kd on GTPase KRas [1] and at GTPase HRas [2] was 3.92 µM each time. Besides, at SOS1-KRAS [3], the IC50 was 16 nM.

On to `CC[C@H](C)[C@@H]1NC(=O)[C@H](Cc2cn(CCc3c(C)[nH]c4cc(Cl)cc(Cl)c34)nn2)NC(=O)[C@H](CC(N)=O)NC(=O)[C@H](CCCNC(=N)N)NC(=O)[C@H](Cc2ccccc2)NC(=O)[C@H](CC(C)C)NC(=O)[C@H](C)NC(=O)c2cc3cc(c2)C(=O)NC[C@@H](C(N)=O)NC(=O)[C@H](CCCNC(=N)N)NC(=O)[C@H](CCCNC(=N)N)NC(=O)[C@H](CCCNC(=N)N)NC(=O)[C@H](CCCNC(=N)N)NC(=O)[C@H](Cc2ccc4ccccc4c2)NC(=O)[C@H](Cc2ccccc2)NC(=O)[C@H](CCCCNC3=O)NC1=O`, for which the Kd was determined as 370 nM in assay [4], 17 µM on GTPase KRas [6] and 210 nM on GTPase KRas [7]. Moreover, the results for the inhibition in assay [5] and in assay [8] were 50% and 60%, respectively. The 50% inhibitory concentration (IC50) at GTPase KRas/RAF1 worked out at 3.4 µM.

Turning to `CC[C@H](C)[C@H](NC(=O)CN1C/C=C\CCC(=O)N[C@@H](Cc2ccccc2)C(=O)N[C@@H](CCC(=O)O)C1=O)C(=O)N[C@@H](Cc1ccc(O)cc1)C(=O)N[C@@H](CCCNC(=N)N)C(=O)N[C@@H](CC(C)C)C(=O)N[C@@H](CCC(=O)O)C(=O)N[C@@H](CC(C)C)C(=O)N[C@@H](CC(C)C)C(=O)N[C@@H](CCCCN)C(=O)N[C@@H](C)C(=O)N[C@@H](CCC(=O)O)C(=O)N[C@@H](CCC(=O)O)C(=O)N[C@@H](C)C(=O)N[C@@H](CC(N)=O)C(N)=O`, the figures for the IC50 against SOS1-KRAS [9] and against SOS1-KRAS [3] were 6.9 µM and 640 nM, respectively. The Kd turned out to be 158 µM at SOS1-KRAS [10] and 28 µM at SOS1-KRAS [11].

For the molecule `CC[C@H](C)[C@H](NC(=O)CNC(=O)[C@H](Cc1ccccc1)NC(C)=O)C(=O)N[C@@]1(C)CCC/C=C\CCC[C@@](C)(C(=O)N[C@@H](CC(C)C)C(=O)N[C@@H](CCCCN)C(=O)N[C@H](C(N)=O)[C@@H](C)O)NC(=O)[C@H](CC(N)=O)NC(=O)[C@H]([C@@H](C)O)NC(=O)[C@H](CC(C)C)NC1=O` (Ac-FGI[S5]LTN[S5]LKT-NH2; staple (Z) 4-8), the IC50 in the assay on NCI-H358 [12] was determined as 7.55 µM; in the assay with NCI-H358 [14], 15.7 µM; in the assay with NCI-H358 [15] it was 5.75 µM; in the assay with NCI-H358 [16], 6.68 µM. Also, the Kd at GTPase KRas [13] was 7.67 µM.

Take `C=CS(=O)(=O)NCCCC(=O)NCCCC[C@H](NC(=O)[C@H](CC(C)C)NC(=O)C[C@@H](CC(=O)O)NC(=O)[C@H](CC(C)C)NC(=O)[C@H](CCCNC(=N)N)NC(=O)[C@H](Cc1ccc(O)cc1)NC(=O)CC(C)(CC)NC(=O)CN1C/C=C\CCCC(=O)N[C@@H](Cc2ccccc2)C(=O)N[C@@H](CCC(=O)O)C1=O)C(=O)N[C@@H](CCCCN)C(=O)NCCC(=O)N[C@@H](CCC(=O)O)C(=O)N[C@@H](CCC(=O)O)C(=O)N[C@@H](C)C(=O)N[C@@H](CC(N)=O)C(N)=O` (stereo not given in full): the Kd on GTPase HRas [17] came to 4.1 µM.

As for `CC[C@H](C)[C@H](NC(=O)CNC(=O)[C@H](Cc1ccccc1)NC(=O)[C@H](Cc1ccccc1)NC(=O)[C@H](CCCNC(=N)N)NC(=O)[C@H](CCCNC(=N)N)NC(C)=O)C(=O)N[C@@]1(C)CCC/C=C\CCC[C@@](C)(C(=O)N[C@@H](CC(C)C)C(=O)N[C@@H](CCCCN)C(=O)N[C@H](C(=O)N[C@@H](CCC(=O)O)C(=O)N[C@@H](CCC(=O)O)C(=O)NCC(=O)N[C@@H](CC(N)=O)C(N)=O)[C@@H](C)O)NC(=O)[C@H](CC(N)=O)NC(=O)[C@H]([C@@H](C)O)NC(=O)[C@H](CC(C)C)NC1=O`, the IC50 (at GTPase KRas [18]; against GTPase KRas [19]; against GTPase KRas [20]; in assay [21]; on GTPase KRas [22]; against GTPase KRas [23]) was 5 µM in each case.
